Laboratory results: article PMC6403188, “Species-Specific Structural Requirements of Alpha-Branched Trehalose Diester Mincle Agonists” (Frontiers in Immunology, 2019)
Entries after “also recorded” stand apart in the source; their conditions may differ.

Columns and labels:
[1] = tested on: Hek Blue human or mouse Mincle-expressing cells; format: cell-based; details: top concentrations, 24 h; compared with vehicle only-treated cells
[2] = tested on: RAW264.7 cells; test: Liposome formulations tested in RAW264.7 cells, TNFα ELISA; format: cell-based, mouse; details: formulated in DDA:DSPC liposome, 24 hours
[3] = tested on: BALB/c mice; test: Anti-M72 serum antibody ELISA after i.m. vaccination with M72 antigen plus liposomal adjuvant; format: in vivo, mouse
Experimental: (§1) Animal studies were carried out in an OLAW and AAALAC accredited vivarium in accordance with University of Montana's IACUC guidelines for the care and use of laboratory animals. Groups of 10–14 BALB/c mice were vaccinated intramuscularly with 0.125 μg M72 antigen and indicated concentrations of various CLR adjuvant candidates (liposomal formulations) in 50 μl total volume per injection. After 14 days, blood and serum samples were collected and a secondary vaccination was administered. At day 19 (5 days post-secondary vaccination), 3–6 mice per group were euthanized and spleens were harvested the assessment of cell-mediated immunity. At day 28 (14 days post booster vaccination) the remaining 7 mice in each group were euthanized and blood was collected for the measurement of M72 specific humoral immunity.
Sera was collected from mice 14 days post-primary and 14 days post-secondary injection and diluted according to the expected antibody response (between 1:10 and 1:5000). Plates were coated with 100 μl of the full-length M72 protein at 1 μg/mL. Following washing (PBS plus tween 20) and blocking (SuperBlock, Scytek Laboratories), plates were incubated with diluted serum for 1 h followed by anti-mouse IgG, IgG1, or IgG2a-HRP secondary antibody (Bethyl Laboratories) and TMB substrate (BD). Plates were read at 450 nm. Antibody titers were determined by calculating titer of each sample at OD 0.3.
Figure 6 Serum antibody levels from mice in response to vaccination with recombinant M72 antigen and various αTDE compounds. BALB/c mice, 10 per group, were vaccinated two times i.m. with 0.125 μg antigen plus 2, 10, or 50 nmol of the indicated adjuvant. Serum was analyzed from 7 mice at 14 days post-secondary vaccination for presence of anti-M72 IgG1 and IgG2a antibodies via ELISA.
(§2) Figure 8 B16 liposomes biases a Th17/Th2 adaptive immune response. BALB/c mice, 14 per group, were immunized twice, 14 days apart, i.m with 0.1, 1, or 10 μg of M72 antigen plus either blank DDA:DSPC liposome or B16 loaded (10 nmol final dose) liposome. (A,B) M72-specific serum antibody titers at 14 days post-secondary vaccination. (C–F) Spleens were harvested from mice at 5 days post-secondary vaccination and restimulated with 1 μg/mL whole antigen and transport inhibitors followed by surface staining for CD3, CD4, and CD8 and then intracellular cytokine staining. (C) Percent of live, CD3^+/CD4^+/IL5+ cells, (D) Percent of live, CD3^+/CD8^+/IFNγ+ cells, (E) Percent of live, CD3^+/CD4^+/IL17+ cells, and (F) Percent of live, CD3^+/CD8^+/IL17+ cells. ^*p < 0.05, ^**p < 0.01, ^****p < 0.001.

[4] = tested on: BALB/c mice; test: Splenocyte restimulation with M72 and intracellular cytokine staining of CD4/CD8 T cells after vaccination; format: in vivo, mouse
Experimental: as §1
Spleens were harvested from vaccinated mice 5 days after secondary injections and splenocytes were harvested by disruption of the spleens through a 100 μm filter. Red blood cells were lysed by incubation with red blood cell lysis buffer (Sigma) for 5 min followed by washing in 1x PBS. Cells were plated in a 96 well plate at 5 × 10^6 cells/well in 200 μL complete RPMI1640 media. Cells were incubated with 1 μg/mL M72 antigen for […] at 37°C. After 7 h, GolgiPlug (Brefeldin A, BD Biosciences) was added to each well and incubated at 37°C for a further 12 h. Following incubation, cells were stained with the cell surface antibodies against CD3e PerCP-Cy5.5 (Tonbo Biosciences, 145-2C11), CD4a APC-Cy7 (Tonbo Biosciences, RM4-5) and CD8a PE-Cy7 (Tonbo Biosciences, 53–6.7) and viability stain (Ghost 510, Tonbo Biosciences). Cells were treated with cytofix/cytoperm (BD) and stained with anti-IFNγ PE-CF594 (BD, XMG1.2), anti-IL2 FITC (Biolegend, JES6-5H4), anti-IL-5 PE (BD, TRFK5), anti-IL17A BV421 (Biolegend, TC11-18H10.1), and anti-TNFα APC (Invitrogen, MP6-XT22). Data was collected using an LSRII flow cytometer (BD) and analyzed using FlowJo 10.0 software (TreeStar). Splenocytes were gated on live, single cells, then CD3+ to identify all T cells, then gated as CD4+CD8- to identify CD4 T cells or CD4-CD8+ to identify CD8 T cells. Gates for intracellular cytokine positive CD4 or CD8 T cells are set based on re-stimulation of naïve splenocytes. Gating strategies for the detection of antigen specific CD4+ and CD8+ T cells are outlined in Supplemental Figure 3.
Figure 7 Induction of IL-17 producing CD4+ and CD8+ T cells from an αTDE adjuvanted M72 vaccine. BALB/c mice, 10 per group, were immunized two times i.m. with 0.125 μg antigen plus 2, 10, or 50 nmol of the indicated adjuvant. Spleens were harvested from a subset of 3 mice per group at 5 days post-secondary vaccination. Splenocytes were restimulated with 1 μg/mL whole antigen and transport inhibitors followed by surface staining for CD3, CD4, and CD8 and then intracellular cytokine staining. Data represent percentage of live, CD3^+/CD4^+, left, or CD3^+/CD8^+, right, cells that are also positive for IL-17A upon stimulation.
as §2
Supplemental Figure 10. Production of IFNɣ, IL-2, IL-5 or TNFα by CD4 or CD8 T cells in response to various CLR compounds. […]

SMILES: CCCCCCCC(CCCCCCC)C(=O)OC[C@H]1O[C@H](O[C@H]2O[C@H](COC(=O)C(CCCCCCC)CCCCCCC)[C@@H](O)[C@H](O)[C@H]2O)[C@H](O)[C@@H](O)[C@@H]1O [Compound B16]
- Cell viability of Mincle HEK cells [1]: less substantial decreases
- TNFα secretion from RAW cells in response to liposome formulation [2]: higher levels of TNFα secretion compared to B42
- M72 specific serum IgG1 and IgG2a antibody titers ([3]; 10 nmol B16 liposome, increasing doses of M72 antigen (0.1, 1, 10 μg), 14 dp2): significantly improved
- M72 specific serum antibody titers ([3]; 10 nmol B16 liposome, lowest dose of M72 antigen (0.1 μg)): did not exhibit significantly higher antibody titers
- Anti-M72 serum IgG1 and IgG2a antibody ([3]; 0.125 μg M72 antigen plus 2, 10, or 50 nmol adjuvant in DDA:DSPC liposomes, i.m. two times, 14 days post-secondary vaccination): neither compound significantly enhanced
- Frequencies of IFNγ+ CD8 T cells or IFNγ+ CD4 T cells ([4]; 10 nmol B16, 0.1, 1 or 10 μg M72, between groups): no differences
- IL-2+ CD4 T cells ([4]; 10 nmol B16, 0.1, 1 or 10 μg M72, compared to blank liposome): similarly increased only in the middle dose
- Frequencies of TNFα+ CD4 T cells ([4]; 10 nmol B16, compared to antigen matched blank liposome groups): not increased
- Frequencies of IL-5+ CD4 T cells ([4]; 10 nmol B16, highest antigen dose tested): no difference is observed
- Frequencies of IL-5+, IL-2+, and TNFα+ CD8 T cells ([4]; 10 nmol B16, highest dose of antigen): not at the highest dose
- Frequencies of IL-5+, IL-2+, and TNFα+ CD8 T cells ([4]; 10 nmol B16, lower doses of antigen, compared to antigen plus blank liposome): also increased
- Frequencies of IL-5+ CD4 T cells ([4]; 10 nmol B16, two lower doses of antigen, compared to antigen plus blank liposome): similarly increased
- Frequencies of IL-17+ CD4 and CD8 T cells ([4]; 10 nmol liposomal B16 with 0.1 μg and 1 μg M72/mouse, compared to antigen plus blank liposomes): significantly higher frequencies
- Frequencies of IL-17+ CD4 and CD8 T cells ([4]; 10 nmol liposomal B16 with 10 μg M72, compared to antigen plus blank liposome): not significant
- IL-17+ CD4+ and CD8+ T cells (Th17 response) after M72 re-stimulation ([4]; 0.125 μg antigen plus 2, 10, or 50 nmol liposomal adjuvant, i.m. two times, spleens 5 days post-secondary): greatest frequency of IL-17+ cells; also recorded: more effective
